Test results as given in patent US12390437B2, “Itaconic acid derivatives and uses thereof intreating an inflammatory disease or a disease associated with an undesirable immune response” (Sitryx Therapeutics Limited, priority 2019, dated 2025).

Legend:
[1] = test system: IL-1β cytokine output from THP-1s; experiment: THP-1 AlphaLISA IL-1β cytokine assay; format: cell-based, human; settings: Homo sapiens, THP-1, PMA-differentiated THP-1 cells, LPS 24 hr then Nigericin 1 hour; read-out: IL-1β (IC50)
In short: (§1)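 Cells are differentiated with PMA over 72 h, switched to 1% FBS medium and treated with compound for 30 min before LPS stimulation for 24 h. Nigericin is added for a final hour, and secreted cytokine is measured by AlphaLISA, with IC50 fitted from percent inhibition.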

[2] = test system: NRF2; experiment: NRF2 +/-GSH activation assay (DiscoverX PathHunter NRF2 translocation kit, U2OS cells); format: cell-based; settings: Homo sapiens, GSH condition not stated in Table 5; for Emax: U2OS, normalised to dimethyl fumarate 'High' control, read-out: NRF2 activation Emax; for EC50: U2OS PathHunter cells, 6 hours, read-out: NRF2 activation EC50
In short: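 PathHunter U2OS cells, plated 24 hrs, measured NRF2 nuclear translocation by enzyme-fragment complementation luminescence after 6 hours compound exposure at 37 °C. For +GSH, compound was pre-incubated 30 minutes with GSH (6 mM working stock). EC50 from % activation normalised to dimethyl fumarate high control.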

[3] = test system: IL-6 cytokine output from THP-1s; experiment: THP-1 AlphaLISA IL-6 cytokine assay; format: cell-based, human; settings: Homo sapiens; PMA-differentiated THP-1 cells, LPS 24 hr then Nigericin 1 hour
In short: as §1

[4] = test system: NQO1; experiment: NQO1 enzyme activation assay as a readout of NRF2 activation in THP-1 cells; format: cell-based; settings: Homo sapiens; for Emax: THP-1, percentage activation at top concentration, normalised to DMF (100%) and vehicle controls; for EC50: differentiated THP-1 cells, LPS, 48 hr
Experimental: NQO1 Enzyme Activation Assay as a Readout of NRF2 Activation in THP-1 Cellular Background
NAD(P)H dehydrogenase [quinone] […] Induction of this gene is concomitant with the inhibition of proinflammatory cytokine transcription and suppression of the inflammatory response (Kobayashi E. H. et al., 2016). The NQO1 enzyme activation activities of compounds of formula (IW-1) were determined using a cellular based NQO1 activation assay (Abcam). The NQO1 activation assay was run in differentiated THP-1 cells (a human monocyte-like cell line) as described below. All reagents described are from Sigma-Aldrich unless specified otherwise. Compounds were prepared as 10 mM DMSO stocks.
THP-1 cells were expanded as a suspension up to 80% confluence in appropriate growth medium. Cells were harvested, suspended, treated with phorbol 12-myristate 13-acetate (PMA) and plated according to the cell density required for each plate format over a 72 hr period (37° C./5% CO2).
Following 72 hrs of THP-1 cell incubation, cellular medium was removed and replaced with fresh media. Working concentrations of compounds were prepared and pre-incubated for 30 minutes (37° C./5% CO2). Compound treatment was then applied to the PMA treated THP-1 cell plate followed by LPS treatment. A ‘low’ (DMSO vehicle only) control and ‘high’ (designated concentration of dimethyl fumarate) was applied to each plate at the point of compound treatment. Cells were subsequently incubated for a 48 hr period (37° C./5% C02) after which all NQO1 assay reagents were prepared according to the manufacturer's instructions. NQO1 extraction buffer was applied to PBS washed THP-1 cells and incubated on ice for 15 minutes to prepare THP-1 lysates for the NQO1 activity assay. THP-1 lysates were diluted 1:5 with PBS and treated with a 1:1 volume of kit prepared NQO1 Reaction Buffer. Absorbance was subsequently measured kinetically on an appropriate reader over a 6 minute period.
For activation determination, the fold change in response per well was determined by first calculating the average NQO1 activation data for the vehicle control and then dividing the individual well response by the averaged NQO1 response for the vehicle control as shown below: Fold change=(Sample value)/MeanMin Where ‘Min’=vehicle control only
The relative 50% activation concentration (EC50) was determined from the resulting fold change response curve. The maximum efficacy (Emax) was reported as the percentage activation calculated at the top concentration of compound used in the titration applied. If a full curve was unattainable preventing a correct curve fit, the Emax value was extrapolated using existing curve data. All percentage activation data were normalised to the DMF and vehicle controls, meaning the Emax represents the percentage […] achieved by a compound at a particular concentration relative to that achieved by DMF (set as the ‘High’ control and therefore representative of 100% activation).

Compound	IC50 [1] [µM]	Emax [2] [%]	EC50 [2] [µM]	IC50 [3] [µM]	Emax [4] [%]	EC50 [4] [µM]
C=C(CC(=O)OCCCCCCCC)C(=O)OCCN1CCCC1=O [Example 5, 4-octyl 1-(2-(2-oxopyrrolidin-1-yl)ethyl) 2-methylenesuccinate]	6.5	216	5.7	2	81	5.9
C=C(CC(=O)OCCCCCCCC)C(=O)OCCC(=O)N(C)C [Example 6, 1-(3-(dimethylamino)-3-oxopropyl) 4-octyl 2-methylenesuccinate]	12.8			12.1	154	30.6
C=C(CC(=O)OCCCC)C(=O)OCCS(C)(=O)=O [Example 7, 4-butyl 1-(2-(methylsulfonyl)ethyl) 2-methylenesuccinate]	16.7			12	78	7.3
C=C(CC(=O)OC)C(=O)OCCC#N [Example 10, 1-(2-cyanoethyl) 4-methyl 2-methylenesuccinate]	27.9			7.6	107	15.2
C=C(CC(=O)OCCCCCC)C(=O)OCCC#N [Example 11, 1-(2-cyanoethyl) 4-hexyl 2-methylenesuccinate]	3.7				124	10.4
C=C(CC(=O)OC)C(=O)OCCS(C)(=O)=O [Example 12, 4-methyl 1-(2-(methylsulfonyl)ethyl) 2-methylenesuccinate]	28.2			11.3	88	22.7
C=C(CC(=O)OCCCCCC)C(=O)OCCS(C)(=O)=O [Example 14, 4-hexyl 1-(2-(methylsulfonyl)ethyl) 2-methylenesuccinate]	1.6	189	8.8	2.1	180	14.4
C=C(CC(=O)OCCCCCCCC)C(=O)OCCS(=O)(=O)N(C)C [Example 16, 1-(2-(N,N-dimethylsulfamoyl)ethyl) 4-octyl 2-methylenesuccinate]	1.7			1.1	108	19.8
C=C(CC(=O)OCCCCCCCC)C(=O)OCCN(C)C [Example 17, 1-(2-(dimethylamino)ethyl) 4-octyl 2-methylenesuccinate]	1.5			1.4	68	2.6
C=C(CC(=O)OCCCCCCCC)C(=O)OC(C)CS(C)(=O)=O (stereo not drawn) [Example 19, 1-(1-(methylsulfonyl)propan-2-yl) 4-octyl 2-methylenesuccinate]	3.6			1.9	44	51
C=C(CC(=O)OCCCOc1ccccc1)C(=O)OCCS(C)(=O)=O [Example 20, 1-(2-(methylsulfonyl)ethyl) 4-(3-phenoxypropyl) 2-methylenesuccinate]	5.6	116	13.5	3.4	224	20
C=C(CC(=O)OCCCCCCCC)C(=O)OCC(=O)N(C)C [Example 21, 1-(2-(dimethylamino)-2-oxoethyl) 4-octyl 2-methylenesuccinate]	2.9			2.4	150	12.1
C=C(CC(=O)OCCCCCC)C(=O)OC1COC1 [Example 38, 4-hexyl 1-(oxetan-3-yl) 2-methylenesuccinate]	7.4			6.8	111	8.5
C=C(CC(=O)OCCCC)C(=O)OCCS(=O)(=O)c1ccc(C)cc1 [Example 39, 4-butyl 1-(2-tosylethyl) 2-methylenesuccinate]	5.1			7.3	59	1.3
C=C(CC(=O)OCCCCCCCC)C(=O)OCCS(=O)(=O)c1ccc(C)cc1 [Example 40, 4-octyl 1-(2-tosylethyl) 2-methylenesuccinate]	1.7			3.4	56	16.6
C=C(CC(=O)OC1COC1)C(=O)OC1COC1 [Example 44, di(oxetan-3-yl) 2-methylenesuccinate]					217	64.6
C=C(CC(=O)OCCCCCCCC)C(=O)OC1CCC1 [Example 45, 1-cyclobutyl 4-octyl 2-methylenesuccinate]					72	1.6
